# Measured values: patent US6756480B2, “Modulators of receptors for parathyroid hormone and parathyroid hormone-related protein” (Amgen Inc., priority 2000, dated 2004)
# Tests used:
# Sprague Dawley (SD) rats = assay: Anabolic assay: lumbar (L3) BMD by DEXA, PTH constructs with or without OPG-Fc; type: in vivo; conditions: 6-month-old male SD rats, DEXA Day 7; OPG-Fc 1 mg/kg once; PTH-(1-34) 20 nMoles/kg x3; PTH-(1-34)-Fc 60 nMoles/kg once
# Protocol: Briefly, 6-month-old male Sprague Dawley (SD) rats were divided into groups of 6. Baseline bone mineral density (BMD) was determined in the third lumbar vertebra (L3) of all rats by dual-energy X-ray absorptiometry (DEXA) (Day 0). Rats were then treated according to the following schedule:
# Group 1: Vehicle controls (PBS, injected SC, Days 1, 3, and 5)
# Group 2: OPG-Fc, single SC injection (1 mg/kg) on Day 1
# Group 3: PTH-(1-34), SC injections on Days 1, 3, and 5, at 20 nMoles PTH/kg/injection. This represents an optimal anabolic PTH regimen.
# Group 4: Same as group 3, but with a single OPG-Fc injection on Day 1.
# Group 5: Single SC injection of PTH-(1-34)-Fc at 60 nMoles/kg, on Day 1. This represents a molar dose which is equivalent to the total dose of PTH-(1-34) received by group 3, but in a single injection.
# Group 6: Same as group 5, but with a single OPG-Fc injection (SC, 1 mg/kg) on Day 1.
# DEXA of the lumbar spine was performed again on Day 7 to evaluate changes in BMD. […] The anabolic effect of a single treatment with PTH-(1-34)-Fc plus OPG-Fc was greater than that induced by multiple injections of PTH-(1-34), with or without OPG-Fc co-treatment.
# Normal 6 month old male rats were treated with PTH-Fc or PTH or vehicle by a single SC injection. Some rats also received a single SC injection of OPG. BMD was determined 7 days later by DEXA. Data represent means+SD, N=6 rats/group.
# rats = assay: Hypercalcemic response to a single SC injection in rats; type: in vivo; conditions: single SC injection 340 nmol/kg
# Protocol: (See FIG. 10.) In an aged OVX rat model of osteoporosis, twice weekly dosing was able to reverse more than 50% of the bone loss induced by one year of estrogen ablation. The effect seen in the aged rat model was even greater when combined with a bisphosphonate (APD). In rats, a single SC injection of PTH-(1-34)-Fc (340 nmol/kg) caused a hypercalcemic response which persisted for 72 hours (FIG. 8). This duration is concordant with the rate of clearance of PTH-(1-34)-Fc from the serum, and is consistent with an optimal twice-weekly dosing regimen in rats.
substance,measurement,setting,value
"PTH-(1-34)-Fc: human PTH-(1-34), SVSEIQLMHNLGKHLNSMERVEWLRKKLQDVHNF, linked at its C-terminus to an Fc domain",BMD in L3 compared to PBS-treated rats,Sprague Dawley (SD) rats,failed to increase BMD
same,persistence of hypercalcemic response,rats,72 h
